# Measured values as given in PubChem BioAssay AID1963437 (Molecular Pharmacology Branch, DTP, NCI, 2024).
# System: OVCAR-8 complex spheroid, growth inhibition
# Experiment: Anticancer human tumor OVCAR-8 cell line growth inhibition [Asc];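 note: spheroids exposed to agents for 7 days before readout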;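 for viability, T/C: percent viability relative to DMSO vehicle wells taken as 100%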
# Details: for IC50: curve of first compound; for viability, T/C: stronger effect = lower value
# How it was run: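 Complex spheroids combining tumor cells with HUVEC endothelial cells and human MSCs, at 37 degrees C, 5% CO2; agents tested alone or combined, half-log dilutions from at or near clinical Cmax, or 10 microM if Cmax unknown.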
# [1] = second compound 0.0316 µM, first compound 0.00316 µM
# [2] = second compound 0.0316 µM, first compound 0.01 µM
# [3] = second compound 0.0316 µM, first compound 0.0316 µM
# [4] = second compound 0.0316 µM, first compound 0.1 µM
# [5] = second compound 0.1 µM, first compound 0.00316 µM
# [6] = second compound 0.1 µM, first compound 0.01 µM
# [7] = second compound 0.1 µM, first compound 0.0316 µM
# [8] = second compound 0.1 µM, first compound 0.1 µM
# [9] = second compound 0.316 µM, first compound 0.00316 µM
# [10] = second compound 0.316 µM, first compound 0.01 µM
# [11] = second compound 0.316 µM, first compound 0.0316 µM
# [12] = second compound 0.316 µM, first compound 0.1 µM
# [13] = second compound 1 µM, first compound 0.00316 µM
# [14] = second compound 1 µM, first compound 0.01 µM
# [15] = second compound 1 µM, first compound 0.0316 µM
# [16] = second compound 1 µM, first compound 0.1 µM
# [17] = second compound 3.16 µM, first compound 0.00316 µM
# [18] = second compound 3.16 µM, first compound 0.01 µM
# [19] = second compound 3.16 µM, first compound 0.0316 µM
# [20] = second compound 3.16 µM, first compound 0.1 µM
# [21] = second compound 10 µM, first compound 0.00316 µM
# [22] = second compound 10 µM, first compound 0.01 µM
# [23] = second compound 10 µM, first compound 0.0316 µM
# [24] = second compound 10 µM, first compound 0.1 µM
smiles,measurement,setting,value
COc1c(OCCCN2CCOCC2)ccc2c3n(c(=NC(=O)c4cnc(N)nc4)nc12)CCN3 + Cc1c(S(C)(=O)=O)c(-c2cc(F)cc(N3CCN(c4ccc(NS(=O)(=O)c5ccc(NC(CCN6CCC(C(=O)OCCCP(=O)(O)O)CC6)CSc6ccccc6)c(S(=O)(=O)C(F)(F)F)c5)cc4)CC3)c2)c(-c2ccc(Cl)cc2)n1C(C)C,IC50,second compound 0.0316 µM,> 1000 nM
same,IC50,second compound 0.1 µM,> 1000 nM
same,IC50,second compound 0.316 µM,> 1000 nM
same,IC50,second compound 1 µM,> 1000 nM
same,IC50,second compound 3.16 µM,> 1000 nM
same,IC50,second compound 10 µM,> 1000 nM
same,"viability, T/C",[1],114%
same,"viability, T/C",[2],104%
same,"viability, T/C",[3],128%
same,"viability, T/C",[4],150%
same,"viability, T/C","second compound 0.0316 µM, first compound 0.316 µM",149%
same,"viability, T/C","second compound 0.0316 µM, first compound 1 µM",82.2%
same,"viability, T/C",[5],100%
same,"viability, T/C",[6],107%
same,"viability, T/C",[7],142%
same,"viability, T/C",[8],161%
same,"viability, T/C","second compound 0.1 µM, first compound 0.316 µM",145%
same,"viability, T/C","second compound 0.1 µM, first compound 1 µM",85.9%
same,"viability, T/C",[9],91.6%
same,"viability, T/C",[10],121%
same,"viability, T/C",[11],154%
same,"viability, T/C",[12],146%
same,"viability, T/C","second compound 0.316 µM, first compound 0.316 µM",140%
same,"viability, T/C","second compound 0.316 µM, first compound 1 µM",85.8%
same,"viability, T/C",[13],114%
same,"viability, T/C",[14],119%
same,"viability, T/C",[15],167%
same,"viability, T/C",[16],181%
same,"viability, T/C","second compound 1 µM, first compound 0.316 µM",142%
same,"viability, T/C","second compound 1 µM, first compound 1 µM",82.8%
same,"viability, T/C",[17],144%
same,"viability, T/C",[18],98.8%
same,"viability, T/C",[19],136%
same,"viability, T/C",[20],170%
same,"viability, T/C","second compound 3.16 µM, first compound 0.316 µM",135%
same,"viability, T/C","second compound 3.16 µM, first compound 1 µM",64.2%
same,"viability, T/C",[21],131%
same,"viability, T/C",[22],141%
same,"viability, T/C",[23],146%
same,"viability, T/C",[24],189%
same,"viability, T/C","second compound 10 µM, first compound 0.316 µM",143%
same,"viability, T/C","second compound 10 µM, first compound 1 µM",76.2%
NC(=O)C(=Cn1cnc(-c2cc(C(F)(F)F)cc(C(F)(F)F)c2)n1)c1cncnc1 + Cc1c(S(C)(=O)=O)c(-c2cc(F)cc(N3CCN(c4ccc(NS(=O)(=O)c5ccc(NC(CCN6CCC(C(=O)OCCCP(=O)(O)O)CC6)CSc6ccccc6)c(S(=O)(=O)C(F)(F)F)c5)cc4)CC3)c2)c(-c2ccc(Cl)cc2)n1C(C)C,IC50,second compound 0.0316 µM,> 300 nM
same,IC50,second compound 0.1 µM,> 300 nM
same,IC50,second compound 0.316 µM,219 nM
same,IC50,second compound 1 µM,155 nM
same,IC50,second compound 3.16 µM,131 nM
same,IC50,second compound 10 µM,108 nM
same,"viability, T/C","second compound 0.0316 µM, first compound 0.000949 µM",107%
same,"viability, T/C","second compound 0.0316 µM, first compound 0.003 µM",97.1%
same,"viability, T/C","second compound 0.0316 µM, first compound 0.00949 µM",103%
same,"viability, T/C","second compound 0.0316 µM, first compound 0.03 µM",114%
same,"viability, T/C","second compound 0.0316 µM, first compound 0.0949 µM",89.3%
same,"viability, T/C","second compound 0.0316 µM, first compound 0.3 µM",55.4%
same,"viability, T/C","second compound 0.1 µM, first compound 0.000949 µM",103%
same,"viability, T/C","second compound 0.1 µM, first compound 0.003 µM",92.6%
same,"viability, T/C","second compound 0.1 µM, first compound 0.00949 µM",93.5%
same,"viability, T/C","second compound 0.1 µM, first compound 0.03 µM",102%
same,"viability, T/C","second compound 0.1 µM, first compound 0.0949 µM",90.4%
same,"viability, T/C","second compound 0.1 µM, first compound 0.3 µM",57.6%
same,"viability, T/C","second compound 0.316 µM, first compound 0.000949 µM",115%
same,"viability, T/C","second compound 0.316 µM, first compound 0.003 µM",112%
same,"viability, T/C","second compound 0.316 µM, first compound 0.00949 µM",101%
same,"viability, T/C","second compound 0.316 µM, first compound 0.03 µM",107%
same,"viability, T/C","second compound 0.316 µM, first compound 0.0949 µM",90.4%
same,"viability, T/C","second compound 0.316 µM, first compound 0.3 µM",34.8%
same,"viability, T/C","second compound 1 µM, first compound 0.000949 µM",119%
same,"viability, T/C","second compound 1 µM, first compound 0.003 µM",111%
same,"viability, T/C","second compound 1 µM, first compound 0.00949 µM",114%
same,"viability, T/C","second compound 1 µM, first compound 0.03 µM",116%
same,"viability, T/C","second compound 1 µM, first compound 0.0949 µM",73.8%
same,"viability, T/C","second compound 1 µM, first compound 0.3 µM",18.1%
same,"viability, T/C","second compound 3.16 µM, first compound 0.000949 µM",109%
same,"viability, T/C","second compound 3.16 µM, first compound 0.003 µM",104%
same,"viability, T/C","second compound 3.16 µM, first compound 0.00949 µM",121%
same,"viability, T/C","second compound 3.16 µM, first compound 0.03 µM",111%
same,"viability, T/C","second compound 3.16 µM, first compound 0.0949 µM",66.7%
same,"viability, T/C","second compound 3.16 µM, first compound 0.3 µM",6.92%
same,"viability, T/C","second compound 10 µM, first compound 0.000949 µM",117%
same,"viability, T/C","second compound 10 µM, first compound 0.003 µM",115%
same,"viability, T/C","second compound 10 µM, first compound 0.00949 µM",132%
same,"viability, T/C","second compound 10 µM, first compound 0.03 µM",127%
same,"viability, T/C","second compound 10 µM, first compound 0.0949 µM",55.8%
same,"viability, T/C","second compound 10 µM, first compound 0.3 µM",4.41%
NC1CCC(NC2CC2c2ccccc2)CC1 (stereo unspecified) + Cc1c(S(C)(=O)=O)c(-c2cc(F)cc(N3CCN(c4ccc(NS(=O)(=O)c5ccc(NC(CCN6CCC(C(=O)OCCCP(=O)(O)O)CC6)CSc6ccccc6)c(S(=O)(=O)C(F)(F)F)c5)cc4)CC3)c2)c(-c2ccc(Cl)cc2)n1C(C)C,IC50,second compound 0.0316 µM,> 100 nM
same,IC50,second compound 0.1 µM,> 100 nM
same,IC50,second compound 0.316 µM,> 100 nM
same,IC50,second compound 1 µM,> 100 nM
same,IC50,second compound 3.16 µM,> 100 nM
same,IC50,second compound 10 µM,> 100 nM
same,"viability, T/C","second compound 0.0316 µM, first compound 0.000316 µM",111%
same,"viability, T/C","second compound 0.0316 µM, first compound 0.001 µM",109%
same,"viability, T/C",[1],83.2%
same,"viability, T/C",[2],101%
same,"viability, T/C",[3],109%
same,"viability, T/C",[4],80.5%
same,"viability, T/C","second compound 0.1 µM, first compound 0.000316 µM",97.5%
same,"viability, T/C","second compound 0.1 µM, first compound 0.001 µM",102%
same,"viability, T/C",[5],93.4%
same,"viability, T/C",[6],105%
same,"viability, T/C",[7],120%
same,"viability, T/C",[8],91.8%
same,"viability, T/C","second compound 0.316 µM, first compound 0.000316 µM",99.2%
same,"viability, T/C","second compound 0.316 µM, first compound 0.001 µM",97.3%
same,"viability, T/C",[9],111%
same,"viability, T/C",[10],100%
same,"viability, T/C",[11],108%
same,"viability, T/C",[12],106%
same,"viability, T/C","second compound 1 µM, first compound 0.000316 µM",118%
same,"viability, T/C","second compound 1 µM, first compound 0.001 µM",114%
same,"viability, T/C",[13],103%
same,"viability, T/C",[14],107%
same,"viability, T/C",[15],132%
same,"viability, T/C",[16],106%
same,"viability, T/C","second compound 3.16 µM, first compound 0.000316 µM",99.3%
same,"viability, T/C","second compound 3.16 µM, first compound 0.001 µM",101%
same,"viability, T/C",[17],119%
same,"viability, T/C",[18],118%
same,"viability, T/C",[19],123%
same,"viability, T/C",[20],104%
same,"viability, T/C","second compound 10 µM, first compound 0.000316 µM",105%
same,"viability, T/C","second compound 10 µM, first compound 0.001 µM",99.6%
same,"viability, T/C",[21],113%
same,"viability, T/C",[22],137%
same,"viability, T/C",[23],133%
same,"viability, T/C",[24],118%
